Results published in the Kinase Knowledgebase extract (Sharma et al. 2016).

These compounds were tested against EGFR (UniProt P00533) (assay: Inhibition of EGFR Kinase Activity).
EGFR, sequence (P00533 whole entry, looked up): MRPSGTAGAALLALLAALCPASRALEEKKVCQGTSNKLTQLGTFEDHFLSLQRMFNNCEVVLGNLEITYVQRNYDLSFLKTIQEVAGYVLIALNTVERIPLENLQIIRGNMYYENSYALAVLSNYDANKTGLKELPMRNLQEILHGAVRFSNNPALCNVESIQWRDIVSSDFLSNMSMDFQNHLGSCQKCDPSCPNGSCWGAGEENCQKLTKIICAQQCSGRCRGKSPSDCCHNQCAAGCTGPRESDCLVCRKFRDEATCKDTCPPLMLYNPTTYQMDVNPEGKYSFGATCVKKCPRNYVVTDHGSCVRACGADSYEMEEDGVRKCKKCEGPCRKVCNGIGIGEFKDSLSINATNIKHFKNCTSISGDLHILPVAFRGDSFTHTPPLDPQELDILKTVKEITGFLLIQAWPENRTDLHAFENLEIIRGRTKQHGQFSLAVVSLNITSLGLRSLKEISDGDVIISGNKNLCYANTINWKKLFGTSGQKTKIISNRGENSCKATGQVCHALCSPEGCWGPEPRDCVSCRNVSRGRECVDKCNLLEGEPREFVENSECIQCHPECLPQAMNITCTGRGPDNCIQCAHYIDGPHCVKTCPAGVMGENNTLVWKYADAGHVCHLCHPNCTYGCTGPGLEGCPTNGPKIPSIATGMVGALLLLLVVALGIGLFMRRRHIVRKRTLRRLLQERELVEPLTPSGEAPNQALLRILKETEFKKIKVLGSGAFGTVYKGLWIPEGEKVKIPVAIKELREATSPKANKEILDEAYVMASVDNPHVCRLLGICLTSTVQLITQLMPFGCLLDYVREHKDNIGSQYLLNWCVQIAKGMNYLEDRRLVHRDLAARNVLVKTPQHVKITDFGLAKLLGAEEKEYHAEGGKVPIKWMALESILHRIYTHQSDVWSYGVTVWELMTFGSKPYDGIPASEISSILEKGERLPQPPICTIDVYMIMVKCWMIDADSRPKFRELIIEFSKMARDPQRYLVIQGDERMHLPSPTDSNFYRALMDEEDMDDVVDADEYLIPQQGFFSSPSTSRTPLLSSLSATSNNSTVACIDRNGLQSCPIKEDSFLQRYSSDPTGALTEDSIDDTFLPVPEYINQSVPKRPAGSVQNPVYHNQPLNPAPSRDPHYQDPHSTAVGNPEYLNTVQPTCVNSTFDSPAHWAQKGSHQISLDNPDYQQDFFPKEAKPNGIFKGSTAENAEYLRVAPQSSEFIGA

IC50 [µM] | Compound
< 50 | C=CC(=O)Nc1ccc(Nc2ncnc(Nc3ccc4NN(=Cc4c3)Cc5ccccn5)n2)cc1
< 50 | C=CC(=O)Nc1ccc(Nc2ncnc(N(C)c3cccc4ccccc34)n2)cc1
< 50 | CC#CC(=O)Nc1cccc(Nc2ncnc(N(CC)c3ccc(OCCO)cc3)n2)c1
< 50 | C=CC(=O)Nc1ccc(Nc2ncnc(NN3CCCc4cc(C)ccc43)n2)cc1
< 50 | CC#CC(=O)Nc1cc(Nc2ncnc(N(C)c3ccc(OCc4ccccc4)c(Cl)c3)n2)ccc1OCCCC1CCN(C)CC1
< 50 | C=CC(=O)Nc1ccc(Nc2ncnc(Nc3cccc(OCCOC)c3)n2)cc1
< 50 | C=CCN(c1ncnc(Nc2cccc(NC(=O)C#CC)c2)n1)C1CC1c1ccccc1 (stereo not given)
< 50 | C=CC(=O)Nc1cc(Nc2ncnc(NN3CCCc4ccc(Cl)cc43)n2)ccc1OCCCN1CCOCC1
< 50 | C=CC(=O)Nc1cccc(Nc2ncnc(N(CC)c3cc(Cl)ccc3C)n2)c1
< 50 | C=CC(=O)Nc1ccc(Nc2ncnc(N(CC)c3ccc(OCC)c(OCC)c3)n2)cc1
< 50 | C=CCN(c1ccc(OCc2ccccc2)cc1)c1ncnc(Nc2cccc(NC(=O)C=C)c2)n1
< 50 | CC#CC(=O)Nc1cccc(Nc2ncnc(N(CC)c3cc(Cl)cc4ccccc34)n2)c1
< 50 | C=CCN(c1ccc(F)c(Cl)c1)c1ncnc(Nc2cccc(NC(=O)C=C)c2)n1
< 50 | C=CCN(c1cc(OC)c(OC)c(OCCN2CCOCC2)c1)c1ncnc(Nc2cccc(NC(=O)C=C)c2)n1
< 50 | C=CCN(c1ncnc(Nc2ccc(NC(=O)C=C)cc2)n1)c1cc(Cl)ccc1C
< 50 | CC#CC(=O)Nc1cccc(Nc2ncnc(N(C)c3ccc(OCCC)c(OCCC)c3)n2)c1
< 50 | C=CCN(c1ccc2NN(=Cc2c1)Cc3ccccn3)c4ncnc(Nc5ccc(NC(=O)C=C)cc5)n4
< 50 | C=CC(=O)Nc1cc(Nc2ncnc(Nc3ccc(OCc4ccccc4)c(Cl)c3)n2)ccc1OCCCN1CCOCC1
< 50 | C=CC(=O)Nc1ccc(Nc2ncnc(Nc3cccc(C)c3)n2)cc1
< 50 | C=CC(=O)Nc1cc(Nc2ncnc(N(C)c3ccc4c(ccn4Cc4ccccc4)c3)n2)ccc1OCCCN1CCOCC1
